Test results reported in patent US9259487B2, “Transgenic non-human animal model of neurodegenerative disease” (Nagasaki University, priority 2011, dated 2016).

Legend:
Type in all cases: in vivo, mouse
GgFF mice [1] = experiment: Rotarod dwelling time (30 rpm, 40 rpm) of aged mice deficient in prothymosin α in striatum
GgFF mice [2] = experiment: Clasping reflex score of aged mice deficient in prothymosin α in striatum
GgFF mice [3] = experiment: Survival ratio after 15-min transient middle cerebral artery occlusion (tMCAO); details: 8- to 16-week-old GgFF mice, administration group
GgFF mice [4] = experiment: Clinical score (motility dysfunction) after 15-min tMCAO; details: 8- to 16-week-old GgFF mice, selegiline 10 mg/kg intraperitoneally after 15-min tMCAO
GgFF mice [5] = experiment: Rotarod dwelling time (motility function) after 15-min tMCAO; details: 8- to 16-week-old GgFF mice, selegiline 10 mg/kg intraperitoneally after 15-min tMCAO, 6 rpm and 12 rpm

Structure (SMILES): Cl.Oc1cc2c(cc1O)C(c1ccccc1)CNCC2 (racemic) [SKF38393, (±)-1-phenyl-2,3,4,5-tetrahydro-1H-3-benzazepine-7,8-diol HCl]
- motility dysfunction in the Rotarod test (GgFF mice [1]; 20- to 30-week-old GgFF mice, 5 hr after intraperitoneal administration of 30 mg/kg, 30 rpm, vs vehicle): significantly improved

Structure (SMILES): CC12CC3CC(C)(C1)CC(N)(C3)C2 [memantine]
- symptom (clasping scores), chronic administration (GgFF mice [2]; memantine 10 mg/kg intraperitoneally every day from Day 1 to Day 7): remarkable recovery
- symptom (motility function by Rotarod), chronic administration (GgFF mice [1]; aged GgFF mice, memantine 10 mg/kg intraperitoneally every day from Day 1 to Day 7, 30 rpm and 40 rpm): remarkable recovery
- motility function, acute (within 24 hr) (GgFF mice [1]; aged GgFF mice, memantine 10 mg/kg intraperitoneally, 24 hr after the administration): most recovered

Structure (SMILES): C#CCN(C)[C@H](C)Cc1ccccc1 [selegiline]
- survival ratio (GgFF mice [3]; selegiline 10 mg/kg intraperitoneally after 15-min tMCAO): markedly-improved
- motility dysfunction (Clinical score) (GgFF mice [4]): remarkably improved
- motility function (dwelling time on Rotarod, Latency to fall) vs non-administration group (GgFF mice [5]): improved motility function
- clasping scores vs before administration, acute (within 24 hr) (GgFF mice [2]; selegiline 10 mg/kg intraperitoneally): tended to improve
- dwelling time on the Rotarod vs before administration, acute (within 24 hr) (GgFF mice [1]; aged GgFF mice, selegiline 10 mg/kg intraperitoneally, 30 rpm and 40 rpm): tended to be long

Structure (SMILES): CCCN[C@H]1CCc2nc(N)sc2C1 [pramipexole]
- survival ratio (GgFF mice [3]; pramipexole 0.01 mg/kg intraperitoneally after 15-min tMCAO): 75%
